Test results from patent publication EP0174162A2, “Pharmaceutically active dipeptide derivatives” (THE WELLCOME FOUNDATION LIMITED, priority 1984, dated 1986).

Tests used:
[1] = molecular target: T1, ACE (Rattus norvegicus, UniProt P47820); test: ACE inhibition in vivo: angiotensin I induced pressor responses in pithed rats; settings: doses 1-100 µgkg^-1min displaced angiotensin I dose response curves rightwards
T1 construct: in pithed rats; from tissue; host or cells: whole animal (pithed rat)
T1 sequence (P47820 36-1313): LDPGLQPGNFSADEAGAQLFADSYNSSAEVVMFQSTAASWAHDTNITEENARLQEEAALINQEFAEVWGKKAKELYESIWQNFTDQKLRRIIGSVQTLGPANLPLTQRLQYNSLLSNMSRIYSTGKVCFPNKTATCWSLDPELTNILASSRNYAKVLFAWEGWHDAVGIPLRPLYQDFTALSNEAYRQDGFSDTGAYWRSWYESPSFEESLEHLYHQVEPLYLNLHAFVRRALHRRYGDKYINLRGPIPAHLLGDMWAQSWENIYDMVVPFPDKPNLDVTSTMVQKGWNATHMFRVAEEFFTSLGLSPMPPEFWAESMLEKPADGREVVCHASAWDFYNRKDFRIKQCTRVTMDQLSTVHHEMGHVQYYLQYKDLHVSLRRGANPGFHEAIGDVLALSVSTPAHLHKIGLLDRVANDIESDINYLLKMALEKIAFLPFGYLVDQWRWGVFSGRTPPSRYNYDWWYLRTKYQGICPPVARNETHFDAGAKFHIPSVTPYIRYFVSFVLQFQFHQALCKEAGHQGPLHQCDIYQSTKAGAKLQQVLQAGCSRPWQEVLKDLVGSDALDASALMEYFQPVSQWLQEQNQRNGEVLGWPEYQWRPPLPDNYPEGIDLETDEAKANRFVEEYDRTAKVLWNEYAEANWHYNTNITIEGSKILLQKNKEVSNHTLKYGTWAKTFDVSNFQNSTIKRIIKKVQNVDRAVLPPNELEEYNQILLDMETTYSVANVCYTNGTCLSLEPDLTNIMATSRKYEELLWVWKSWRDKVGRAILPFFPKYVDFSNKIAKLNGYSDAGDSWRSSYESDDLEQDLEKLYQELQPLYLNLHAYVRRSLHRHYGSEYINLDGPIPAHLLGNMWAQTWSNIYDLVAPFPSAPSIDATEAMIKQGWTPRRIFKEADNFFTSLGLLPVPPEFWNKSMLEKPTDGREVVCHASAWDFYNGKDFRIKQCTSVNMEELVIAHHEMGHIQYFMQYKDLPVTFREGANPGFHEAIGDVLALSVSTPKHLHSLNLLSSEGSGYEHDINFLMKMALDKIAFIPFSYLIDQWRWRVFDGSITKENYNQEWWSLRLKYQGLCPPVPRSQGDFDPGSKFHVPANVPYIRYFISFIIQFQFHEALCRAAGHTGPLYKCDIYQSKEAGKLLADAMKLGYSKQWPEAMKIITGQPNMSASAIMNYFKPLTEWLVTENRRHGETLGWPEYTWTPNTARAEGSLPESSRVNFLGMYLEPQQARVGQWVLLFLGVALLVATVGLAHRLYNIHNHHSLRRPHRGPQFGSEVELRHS
Protocol: Doses 1-100 µgkg^-1min effectively displaced in a rightwards fashion, angiotensin I dose response curves.

[2] = molecular target: isolated enzyme (Homo sapiens, UniProt P12821); test: ACE inhibition on isolated enzyme; format: biochemical; settings: read-out: apparent IC50 on isolated enzyme
Sequence of isolated enzyme (P12821 30-1306): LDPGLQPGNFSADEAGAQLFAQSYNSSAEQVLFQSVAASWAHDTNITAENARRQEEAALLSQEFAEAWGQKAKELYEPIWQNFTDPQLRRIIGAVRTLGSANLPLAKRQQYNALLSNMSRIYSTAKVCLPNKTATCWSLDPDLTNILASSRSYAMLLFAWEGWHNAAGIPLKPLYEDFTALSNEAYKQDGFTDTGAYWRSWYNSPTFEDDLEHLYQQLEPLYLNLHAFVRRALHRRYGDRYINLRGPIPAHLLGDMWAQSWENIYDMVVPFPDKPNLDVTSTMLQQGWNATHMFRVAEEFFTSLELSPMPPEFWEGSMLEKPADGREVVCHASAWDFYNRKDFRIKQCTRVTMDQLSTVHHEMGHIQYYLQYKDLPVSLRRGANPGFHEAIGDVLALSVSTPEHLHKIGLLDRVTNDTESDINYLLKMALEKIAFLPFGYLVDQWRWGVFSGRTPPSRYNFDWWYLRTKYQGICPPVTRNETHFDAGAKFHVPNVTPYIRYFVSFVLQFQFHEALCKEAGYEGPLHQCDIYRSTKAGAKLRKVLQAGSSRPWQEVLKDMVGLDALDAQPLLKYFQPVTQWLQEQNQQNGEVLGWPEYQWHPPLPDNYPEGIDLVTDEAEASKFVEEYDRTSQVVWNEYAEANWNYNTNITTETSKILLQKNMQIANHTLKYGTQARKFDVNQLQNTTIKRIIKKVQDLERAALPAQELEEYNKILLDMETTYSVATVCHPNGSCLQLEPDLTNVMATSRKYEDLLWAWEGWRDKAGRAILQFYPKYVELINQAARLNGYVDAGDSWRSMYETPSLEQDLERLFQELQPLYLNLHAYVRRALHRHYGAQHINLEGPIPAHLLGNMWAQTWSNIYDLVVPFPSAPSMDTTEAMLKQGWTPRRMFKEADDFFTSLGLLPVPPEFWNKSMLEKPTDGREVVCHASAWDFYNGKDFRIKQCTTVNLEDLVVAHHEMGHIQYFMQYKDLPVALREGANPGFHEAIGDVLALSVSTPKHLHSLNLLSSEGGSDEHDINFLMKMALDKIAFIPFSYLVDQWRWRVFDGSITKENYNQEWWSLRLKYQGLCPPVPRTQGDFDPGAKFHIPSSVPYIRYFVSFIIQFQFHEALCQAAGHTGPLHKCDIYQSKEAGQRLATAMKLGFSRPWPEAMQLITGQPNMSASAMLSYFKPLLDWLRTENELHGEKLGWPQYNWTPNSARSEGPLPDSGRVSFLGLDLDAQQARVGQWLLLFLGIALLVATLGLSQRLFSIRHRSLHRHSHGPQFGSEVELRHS

[3] = system: isoprenaline induced tachycardia; test: Effect on heart rate: isoprenaline induced tachycardia in pithed rats; format: in vivo; settings: doses 10-100 µgkg^-1min^-1 displaced isoprenaline dose response curves rightwards
Protocol: Doses 10-100 µgkg^-1min^-1 effectively displaced in a rightwards fashion, isoprenaline dose response curves.

[4] = system: salt depleted conscious beagle dogs; test: Antihypertensive activity in salt depleted conscious beagle dogs; format: in vivo; settings: intravenous administration, doses in the range 1-3 mgkg^-1
[5] = system: uninephrectomised, contralateral renal stenotic conscious beagle dogs; test: Antihypertensive activity in uninephrectomised, contralateral renal stenotic conscious beagle dogs; format: in vivo; settings: doses in the range 1-3 mgkg^-1 intravenously

For CC(C)NCC(O)COc1cccc2[nH]c(C(=O)NCCCC[C@H](NC(C)C(=O)N3CCC[C@H]3C(=O)O)C(=O)O)cc12 (some centres unmarked) [Example 1], the “inhibition of angiotensin I induced pressor responses” value [1] was “inhibit in a dose dependent fashion”, the IC50 [2] was 0.011 µM and the “inhibition of isoprenaline induced tachycardia” value [3] was “inhibit in a dose dependent fashion”. The blood pressure [4] was “reduce blood pressure” and the hypotensive activity [5] was “marked hypotensive activity”.
